# pIC50: −log10 of the molar value.
# Columns and labels:
# [1] = biological target: Her2 Exon 20 INSYVMA Ba/F3 (Homo sapiens, UniProt P04626, DUP772-775, cells depend on it); experiment: Her2 Exon 20 INSYVMA Ba/F3 CellTiter-Glo; type: cell-based; settings: CellTiter-Glo, 72 h, read-out: Her2 Exon 20 INSYVMA Ba/F3 CTG IC50
# In short: (§1)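 IC50 values, binned A (≤100 nM) through E (>10000 nM), come from luminescent ATP quantitation of viable mutant-driven Ba/F3 cells. Compound exposure lasted 72 h, starting 24 h post-seeding; DMSO and 10 μM staurosporine served as controls, Z′ ≥0.5 required.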
# [2] = Metabolic stability in mouse liver microsomes without cofactor NADPH; type: in vitro ADME; settings: 3 μM test compound, mouse liver microsomes, without NADPH, 50 min, 37° C., LC-MS/MS
# In short: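 Cofactor-free incubation: no NADPH added to mouse liver microsomes, with compound at 3 μM and 37° C. Remaining parent was quantified by LC-MS/MS at time points up to 50 minutes to track depletion.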
# EGFR wt = EGFR wt (Homo sapiens, UniProt P00533); experiment: EGFR wt Lance assay; type: biochemical
# Method: (§2) Inhibition is indicated as […] [nM] (“−”=not measured). Compounds having an activity designated as “A” provided an IC50≤100 nM; compounds having an activity designated as “B” provided an 100 nM<IC50≤500 nM; compounds having an activity designated as “C” provided an 500 nM<IC50≤1000 nM; compounds having an activity designated as “D” provided an 1000 nM<IC50≤100000 nM; and compounds having an activity designated as “E” provided an IC50>10000 nM.
# EGFR T790ML858R = EGFR T790ML858R (Homo sapiens, UniProt P00533, L858R/T790M); experiment: EGFR T790ML858R Lance assay; type: biochemical
# Method: as §2
# HER2 INS YVMA = biological target: T1, HER2 INS YVMA (Homo sapiens, UniProt P04626, INS775YVMA); experiment: Lance Kinase Activity Assay, HER2 INS YVMA (Her2 Exon 20 INSYVMA Lance); type: biochemical; settings: biochemical Lance assay
# T1 construct: purchased DPF
# In short: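 IC50 was fitted to sigmoidal curves of TR-FRET signal (665 and 615 nm emission after 340 nm excitation) from an Eu anti-phospho antibody binding the phosphorylated ULight peptide. The ATP-started reaction ran 1 h at RT and was then quenched with 10 mM EDTA plus antibody for a further 1 h. Compounds were tested as 8-point, 3-fold dilutions.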
# [3] = biological target: EGFR Exon 20 INSNPH Ba/F3 (Homo sapiens, UniProt P00533, DUP771-773, cells depend on it); experiment: EGFR Exon 20 INSNPH Ba/F3 CellTiter-Glo; type: cell-based; settings: CellTiter-Glo, 72 h, read-out: EGFR Exon 20 INSNPH Ba/F3 CTG IC50
# In short: as §1
# A431 = A431 CellTiter-Glo; type: cell-based; settings: Homo sapiens, A-431; 72 h compound incubation; read-out: A431 CTG IC50
# In short: (§3)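 ATP-based luminescent viability read after 72 h compound exposure (DMSO vehicle, range of concentrations), cells plated 24 h beforehand at 37° C, 5% CO2. IC50 by dose-response fitting; 10 μM Staurosporine and DMSO controls, Z′-factor ≥0.5 required.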
# H1975 = H1975 CellTiter-Glo; type: cell-based; settings: Homo sapiens, NCI-H1975; 72 h compound incubation; read-out: H1975 CTG IC50
# In short: as §3
# Sequence of EGFR T790ML858R (P00533 25-1210 T790M/L858R): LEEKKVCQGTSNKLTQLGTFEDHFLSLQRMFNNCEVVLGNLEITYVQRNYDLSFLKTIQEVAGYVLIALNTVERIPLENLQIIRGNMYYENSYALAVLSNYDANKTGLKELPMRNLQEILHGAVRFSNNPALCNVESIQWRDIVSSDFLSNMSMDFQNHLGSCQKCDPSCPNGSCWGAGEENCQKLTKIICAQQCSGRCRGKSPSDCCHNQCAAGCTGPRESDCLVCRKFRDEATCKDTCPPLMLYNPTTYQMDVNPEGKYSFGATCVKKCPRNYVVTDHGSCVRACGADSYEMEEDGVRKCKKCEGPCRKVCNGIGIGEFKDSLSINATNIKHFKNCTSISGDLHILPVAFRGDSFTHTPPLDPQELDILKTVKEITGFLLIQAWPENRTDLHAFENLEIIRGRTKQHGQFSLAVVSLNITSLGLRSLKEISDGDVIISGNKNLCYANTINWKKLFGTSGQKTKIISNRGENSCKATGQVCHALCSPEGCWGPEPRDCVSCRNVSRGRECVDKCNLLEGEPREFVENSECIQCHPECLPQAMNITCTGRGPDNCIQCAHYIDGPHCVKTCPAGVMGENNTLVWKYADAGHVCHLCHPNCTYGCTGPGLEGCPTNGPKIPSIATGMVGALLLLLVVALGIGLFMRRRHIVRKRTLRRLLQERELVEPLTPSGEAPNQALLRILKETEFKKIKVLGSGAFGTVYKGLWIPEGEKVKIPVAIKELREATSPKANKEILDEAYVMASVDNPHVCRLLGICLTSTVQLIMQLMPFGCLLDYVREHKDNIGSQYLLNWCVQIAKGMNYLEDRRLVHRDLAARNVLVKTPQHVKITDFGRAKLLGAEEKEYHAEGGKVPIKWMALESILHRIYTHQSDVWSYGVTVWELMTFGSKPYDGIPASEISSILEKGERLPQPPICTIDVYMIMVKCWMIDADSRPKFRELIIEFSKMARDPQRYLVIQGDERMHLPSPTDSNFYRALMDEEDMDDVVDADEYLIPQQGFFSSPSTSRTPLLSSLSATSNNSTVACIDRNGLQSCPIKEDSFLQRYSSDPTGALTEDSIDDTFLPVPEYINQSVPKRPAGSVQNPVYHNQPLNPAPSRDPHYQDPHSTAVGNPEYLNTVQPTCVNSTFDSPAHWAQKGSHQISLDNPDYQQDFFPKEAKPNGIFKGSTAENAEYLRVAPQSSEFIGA
# Sequence of Her2 Exon 20 INSYVMA Ba/F3 (P04626 with tags, fused parts or gaps DUP772-775): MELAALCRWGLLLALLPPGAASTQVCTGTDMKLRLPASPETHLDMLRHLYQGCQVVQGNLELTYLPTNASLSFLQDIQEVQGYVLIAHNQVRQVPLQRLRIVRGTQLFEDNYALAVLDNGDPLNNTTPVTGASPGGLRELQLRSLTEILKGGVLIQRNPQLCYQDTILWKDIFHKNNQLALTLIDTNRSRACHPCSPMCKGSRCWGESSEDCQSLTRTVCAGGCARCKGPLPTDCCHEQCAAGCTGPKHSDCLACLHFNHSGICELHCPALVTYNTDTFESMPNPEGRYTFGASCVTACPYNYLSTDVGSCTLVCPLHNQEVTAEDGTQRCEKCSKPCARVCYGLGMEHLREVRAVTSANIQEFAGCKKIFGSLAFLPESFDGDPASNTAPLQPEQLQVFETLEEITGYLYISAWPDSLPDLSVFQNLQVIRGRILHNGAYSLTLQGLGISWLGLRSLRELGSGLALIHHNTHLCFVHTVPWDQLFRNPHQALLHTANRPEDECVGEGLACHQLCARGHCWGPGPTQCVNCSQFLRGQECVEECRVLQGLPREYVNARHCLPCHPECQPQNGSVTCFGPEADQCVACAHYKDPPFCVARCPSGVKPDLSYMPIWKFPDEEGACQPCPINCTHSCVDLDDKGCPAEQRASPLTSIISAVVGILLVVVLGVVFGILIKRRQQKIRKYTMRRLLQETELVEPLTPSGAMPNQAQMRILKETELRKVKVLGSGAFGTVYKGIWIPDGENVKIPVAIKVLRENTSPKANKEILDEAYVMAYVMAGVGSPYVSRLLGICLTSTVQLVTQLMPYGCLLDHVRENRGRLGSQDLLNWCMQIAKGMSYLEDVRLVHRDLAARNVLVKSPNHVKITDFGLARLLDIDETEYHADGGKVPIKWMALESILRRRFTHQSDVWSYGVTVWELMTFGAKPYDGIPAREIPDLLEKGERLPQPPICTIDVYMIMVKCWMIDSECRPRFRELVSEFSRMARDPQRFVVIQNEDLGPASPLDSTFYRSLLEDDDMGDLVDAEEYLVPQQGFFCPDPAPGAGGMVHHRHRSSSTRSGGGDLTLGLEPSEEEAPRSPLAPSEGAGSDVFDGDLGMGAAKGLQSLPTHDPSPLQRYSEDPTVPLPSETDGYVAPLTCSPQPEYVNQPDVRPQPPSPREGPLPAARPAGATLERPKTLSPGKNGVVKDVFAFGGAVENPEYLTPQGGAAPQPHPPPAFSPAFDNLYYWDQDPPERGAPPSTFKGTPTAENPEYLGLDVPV
# Sequence of EGFR Exon 20 INSNPH Ba/F3 (P00533 with tags, fused parts or gaps DUP771-773): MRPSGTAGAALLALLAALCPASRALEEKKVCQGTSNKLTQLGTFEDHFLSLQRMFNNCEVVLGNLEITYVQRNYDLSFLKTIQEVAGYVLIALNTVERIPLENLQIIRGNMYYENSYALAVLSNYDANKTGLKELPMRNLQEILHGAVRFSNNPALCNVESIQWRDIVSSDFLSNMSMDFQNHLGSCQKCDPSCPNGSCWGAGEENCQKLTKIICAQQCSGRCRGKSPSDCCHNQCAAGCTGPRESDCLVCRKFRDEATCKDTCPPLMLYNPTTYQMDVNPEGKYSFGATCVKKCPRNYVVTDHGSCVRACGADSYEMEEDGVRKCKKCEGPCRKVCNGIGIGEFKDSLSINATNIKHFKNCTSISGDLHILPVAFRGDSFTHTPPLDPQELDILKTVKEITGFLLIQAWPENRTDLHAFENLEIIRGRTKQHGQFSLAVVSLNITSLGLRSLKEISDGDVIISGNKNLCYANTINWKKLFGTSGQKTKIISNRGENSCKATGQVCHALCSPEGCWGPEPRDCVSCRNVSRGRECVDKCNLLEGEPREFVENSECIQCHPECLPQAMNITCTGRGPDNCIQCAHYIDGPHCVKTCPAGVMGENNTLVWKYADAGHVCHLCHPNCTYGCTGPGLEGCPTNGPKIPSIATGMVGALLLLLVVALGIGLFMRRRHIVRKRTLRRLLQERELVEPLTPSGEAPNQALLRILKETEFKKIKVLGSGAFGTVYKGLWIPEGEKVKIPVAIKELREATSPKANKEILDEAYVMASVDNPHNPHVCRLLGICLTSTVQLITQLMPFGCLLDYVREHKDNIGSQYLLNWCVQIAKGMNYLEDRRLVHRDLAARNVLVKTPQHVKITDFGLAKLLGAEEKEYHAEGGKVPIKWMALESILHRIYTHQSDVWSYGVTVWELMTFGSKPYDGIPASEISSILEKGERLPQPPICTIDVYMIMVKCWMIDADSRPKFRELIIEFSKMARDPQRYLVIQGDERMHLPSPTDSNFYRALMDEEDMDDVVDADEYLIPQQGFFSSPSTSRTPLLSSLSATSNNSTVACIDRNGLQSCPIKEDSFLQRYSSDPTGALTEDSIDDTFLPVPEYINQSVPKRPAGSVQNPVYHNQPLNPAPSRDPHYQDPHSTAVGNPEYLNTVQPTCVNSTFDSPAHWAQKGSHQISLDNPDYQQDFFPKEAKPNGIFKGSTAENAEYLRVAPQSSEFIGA
# T1 sequence (P04626 with tags, fused parts or gaps INS775YVMA): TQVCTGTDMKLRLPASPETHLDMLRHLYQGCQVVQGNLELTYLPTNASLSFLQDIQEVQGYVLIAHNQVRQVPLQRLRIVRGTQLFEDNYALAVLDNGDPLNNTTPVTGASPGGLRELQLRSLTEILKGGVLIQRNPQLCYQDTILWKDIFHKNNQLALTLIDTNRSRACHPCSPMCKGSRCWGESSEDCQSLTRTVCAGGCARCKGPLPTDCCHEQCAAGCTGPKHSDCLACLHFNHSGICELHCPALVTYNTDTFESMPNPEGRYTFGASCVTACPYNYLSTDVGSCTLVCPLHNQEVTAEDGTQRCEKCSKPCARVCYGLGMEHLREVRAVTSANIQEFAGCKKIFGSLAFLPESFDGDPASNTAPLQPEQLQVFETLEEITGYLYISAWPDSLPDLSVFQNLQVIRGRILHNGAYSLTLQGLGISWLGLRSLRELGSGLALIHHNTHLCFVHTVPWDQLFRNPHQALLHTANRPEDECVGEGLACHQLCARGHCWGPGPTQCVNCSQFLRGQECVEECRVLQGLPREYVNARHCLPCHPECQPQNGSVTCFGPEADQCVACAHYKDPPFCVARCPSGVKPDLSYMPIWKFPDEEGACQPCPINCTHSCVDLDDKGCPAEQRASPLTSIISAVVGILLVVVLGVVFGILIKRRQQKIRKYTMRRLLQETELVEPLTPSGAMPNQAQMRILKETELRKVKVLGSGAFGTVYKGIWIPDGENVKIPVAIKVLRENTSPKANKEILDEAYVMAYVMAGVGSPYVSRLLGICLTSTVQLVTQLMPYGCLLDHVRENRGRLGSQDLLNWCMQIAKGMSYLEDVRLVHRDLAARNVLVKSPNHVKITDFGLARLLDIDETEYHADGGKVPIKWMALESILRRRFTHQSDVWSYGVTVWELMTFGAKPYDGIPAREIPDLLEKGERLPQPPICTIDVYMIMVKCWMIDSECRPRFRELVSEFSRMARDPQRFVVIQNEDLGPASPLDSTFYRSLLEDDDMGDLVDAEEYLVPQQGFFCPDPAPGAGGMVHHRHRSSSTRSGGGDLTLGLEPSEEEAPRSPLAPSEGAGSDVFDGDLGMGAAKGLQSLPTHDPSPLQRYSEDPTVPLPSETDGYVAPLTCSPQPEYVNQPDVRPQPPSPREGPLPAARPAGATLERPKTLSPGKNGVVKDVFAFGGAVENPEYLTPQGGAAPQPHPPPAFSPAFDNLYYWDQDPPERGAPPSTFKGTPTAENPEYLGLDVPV
SMILES,GI50 [1] [µM],Stability in presence of mouse liver microsomes without cofactor NADPH [% remaining after 50 min] [2] [% remaining after 50 min],pIC50 (EGFR wt),pIC50 (EGFR T790ML858R),pIC50 (HER2 INS YVMA),GI50 [3] [µM],pIC50 (A431),pIC50 (H1975)
"C=CC(=O)Nc1cc(-c2c(-c3cnc(N4CCN(C)CC4)nc3)[nH]c3nccc(Cl)c23)ccc1C [Example 39, N-(5-(4-chloro-2-(2-(4-methylpiperazin-1-yl)pyrimidin-5-yl)-1H-pyrrolo[2,3-b]pyridin-3-yl)-2-methylphenyl)acrylamide]",0.5 to 1,>99,≥ 7.00,≥ 7.00,6.30 to 7.00,1 to 10,4.00 to 6.00,6.30 to 7.00
"C=CC(=O)Nc1cc(-c2c(-c3cccc(CN4CCN(C(C)=O)CC4)c3)[nH]c3ncccc23)ccc1C [Example 81, N-(5-(2-(3-((4-acetylpiperazin-1-yl)methyl)phenyl)-1H-pyrrolo[2,3-b]pyridin-3-yl)-2-methylphenyl)acrylamide]",1 to 10,80,6.30 to 7.00,≥ 7.00,5.00 to 6.00,1 to 10,4.00 to 6.00,4.00 to 6.00
"C=CC(=O)Nc1cc(-c2c(-c3ccc(N4CCN(C)CC4)cc3)[nH]c3ncc(C(=O)NC4CCCCC4)cc23)ccc1C [Example 120, 3-(3-acrylamido-4-methylphenyl)-N-cyclohexyl-2-(4-(4-methylpiperazin-1-yl)phenyl)-1H-pyrrolo[2,3-b]pyridine-5-carboxamide]",0.1 to 0.5,>99,≥ 7.00,≥ 7.00,≥ 7.00,0.1 to 0.5,6.30 to 7.00,6.30 to 7.00
"C=CC(=O)N1CCOc2ccc(-c3c(-c4ccc(N(C)CCN(C)C)cc4)[nH]c4nccc(Cl)c34)cc21 [Example 84, 1-(6-(4-chloro-2-(4-((2-(dimethylamino)ethyl)(methyl)amino)phenyl)-1H-pyrrolo[2,3-b]pyridin-3-yl)-2H-benzo[b][1,4]oxazin-4(3H)-yl)prop-2-en-1-one]",0.1 to 0.5,94,≥ 7.00,≥ 7.00,≥ 7.00,0.1 to 0.5,6.00 to 6.30,6.30 to 7.00
"C=CC(=O)Nc1cc(-c2c(-c3ccc(N4CCN(C)CC4)cc3)[nH]c3ncc(C#N)cc23)ccc1C [Example 97, N-(5-(5-cyano-2-(4-(4-methylpiperazin-1-yl)phenyl)-1H-pyrrolo[2,3-b]pyridin-3-yl)-2-methylphenyl)acrylamide 2,2,2-trifluoroacetate]",0.1 to 0.5,>99,≥ 7.00,≥ 7.00,≥ 7.00,≤ 0.1,6.30 to 7.00,≥ 7.00
"C=CC(=O)Nc1cc(-c2c(-c3ccc(C4CCN(C)CC4)cc3)[nH]c3ncc(C(=O)OC(C)C)cc23)cc(F)c1C [Example 179, isopropyl 3-(3-acrylamido-5-fluoro-4-methylphenyl)-2-(4-(1-methylpiperidin-4-yl)phenyl)-1H-pyrrolo[2,3-b]pyridine-5-carboxylate]",0.1 to 0.5,>99,≥ 7.00,≥ 7.00,≥ 7.00,0.1 to 0.5,4.00 to 6.00,6.30 to 7.00
"C=CC(=O)N1CCCc2ccc(-c3c(-c4ccc(N5CCN(C(C)C)CC5)cc4)[nH]c4nccc(Cl)c34)cc21 [Example 91, 1-(7-(4-chloro-2-(4-(4-isopropylpiperazin-1-yl)phenyl)-1H-pyrrolo[2,3-b]pyridin-3-yl)-3,4-dihydroquinolin-1(2H)-yl)prop-2-en-1-one]",0.5 to 1,>99,≥ 7.00,≥ 7.00,≥ 7.00,0.5 to 1,4.00 to 6.00,6.30 to 7.00
"C=CC(=O)N1CCCc2ccc(-c3c(-c4ccc(N5CCN(C)CC5)nc4)[nH]c4nccc(Cl)c34)cc21 [Example 93, 1-(7-(4-chloro-2-(6-(4-methylpiperazin-1-yl)pyridin-3-yl)-1H-pyrrolo[2,3-b]pyridin-3-yl)-3,4-dihydroquinolin-1(2H)-yl)prop-2-en-1-one]",0.5 to 1,>99,≥ 7.00,≥ 7.00,6.30 to 7.00,1 to 10,4.00 to 6.00,6.00 to 6.30
"C=CC(=O)Nc1cc(-c2c(-c3ccc(OCCN(C)C)cc3)[nH]c3ncc(C(=O)OC(C)C)cc23)ccc1C [Example 159, isopropyl 3-(3-acrylamido-4-methylphenyl)-2-(4-(2-(dimethylamino)ethoxy)phenyl)-1H-pyrrolo[2,3-b]pyridine-5-carboxylate]",0.1 to 0.5,>99,≥ 7.00,≥ 7.00,≥ 7.00,0.1 to 0.5,4.00 to 6.00,6.30 to 7.00
"C=CC(=O)N1CCc2ccc(-c3c(-c4ccc(CN5CCOCC5)cc4)[nH]c4nccc(Cl)c34)cc21 [Example 68, 1-(6-(4-chloro-2-(4-(morpholinomethyl)phenyl)-1H-pyrrolo[2,3-b]pyridin-3-yl)indolin-1-yl)prop-2-en-1-one]",0.5 to 1,>99,≥ 7.00,≥ 7.00,≥ 7.00,1 to 10,4.00 to 6.00,6.30 to 7.00
"C=CC(=O)N1CCCc2ccc(-c3c(-c4cccc(OCCN(C)C)c4)[nH]c4nccc(Cl)c34)cc21 [Example 88, 1-(7-(4-chloro-2-(3-(2-(dimethylamino)ethoxy)phenyl)-1H-pyrrolo[2,3-b]pyridin-3-yl)-3,4-dihydroquinolin-1(2H)-yl)prop-2-en-1-one]",1 to 10,>99,≥ 7.00,≥ 7.00,≥ 7.00,1 to 10,4.00 to 6.00,6.30 to 7.00
"C=CC(=O)N1CCOc2ccc(-c3c(-c4ccc(CN5CCN(C)CC5)cc4)[nH]c4nccc(Cl)c34)cc21 [Example 100, 1-(6-(4-chloro-2-(4-((4-methylpiperazin-1-yl)methyl)phenyl)-1H-pyrrolo[2,3-b]pyridin-3-yl)-2H-benzo[b][1,4]oxazin-4(3H)-yl)prop-2-en-1-one]",0.1 to 0.5,>99,≥ 7.00,≥ 7.00,≥ 7.00,0.5 to 1,4.00 to 6.00,6.30 to 7.00

# — patent publication US20220370440A1 (Lead Discovery Center GmbH, priority 2018, published 2022)
